Reference: patent publication US20120264810A1, “COMPOSITIONS AND METHODS FOR ENHANCING CELLULAR UPTAKE AND INTRACELLULAR DELIVERY OF LIPID PARTICLES” (The University of British Columbia, priority 2009, published 2012)
Counter-ions that a name gives are not always drawn.

Tested on: Raw264.7 cells
Test: Drug screen and titration: siRNACy3-LN uptake and punctate distribution (Cellomics ArrayScan)
Type: cell-based, mouse
Settings: for Normalized Punctate Distribution / Normalized siRNA Uptake: 10 μg/mL siRNACy3 in DLinDMA LN, ~10 μM drug, 24 h; for Normalized Punctate Distribution: normalized to absence of drug; for Normalized siRNA Uptake: total Cy3 intensity normalized to absence of drug; for punctate / cytosolic distribution of siRNACy3 in titration study: drug 0-30 μM, 10 μg/mL siRNACy3-LN; for increase in siRNACy3 accumulation: drug at 30 μM, 10 μg/mL siRNACy3 in DLinDMA LNs, normalized to no drug
Experimental: (§1) Cells were fixed with 3% paraformaldehyde in PBS in the presence of Hoescht for 15 minutes. Cells were rinsed and stored in PBS supplemented with calcium chloride and magnesium sulfate. Plates were scanned and analyzed with the Cellomics ArrayScan VTI.
as §1

Compound	Normalized Punctate Distribution	Normalized siRNA Uptake	punctate / cytosolic distribution of siRNACy3 in titration study	increase in siRNACy3 accumulation
c1ccc2c(CC3=NCCN3)cccc2c1 [Naphazoline HCl, naphazoline hydrochloride]	1.49	1.32		
Nc1nc(O)c2[nH]nnc2n1 [Azaguanine-8]	0.07	0.54		
C[N+]1(C)CCC(=C(c2ccccc2)c2ccccc2)CC1 [Diphemanil methylsulfate]	0.34	0.70	only showed enhanced cytosolic distribution of siRNACy3 at 30 μM	
N[C@@H](Cc1ccc(O)c(O)c1)C(=O)O [Levodopa]	1.43	1.28		
CC(COc1ccccc1)NC(C)C(O)c1ccc(O)cc1 (stereo not drawn) [Isoxsuprine HCl, isoxsuprine hydrochloride]	0.33	0.51		
CC(=O)c1ccc(S(=O)(=O)NC(=O)NC2CCCCC2)cc1 [Acetohexamide]	1.48	1.32		
Cc1cc(NC(=O)C2=C(O)c3ccccc3S(=O)(=O)N2C)no1 [Isoxicam]	1.53	1.42		~3 fold
Cn1c(=O)c2c(ncn2CC(O)CO)n(C)c1=O (stereo not drawn) [Diprophylline]	1.55	1.38		Approximately 2 fold
COc1cc(C(=O)NCc2ccc(OCCN(C)C)cc2)cc(OC)c1OC [Trimethobenzamide HCl, Trimethobenzamide hydrochloride]	0.31	0.70	increased punctate distribution of siRNACy3 with increasing drug concentration	
CC(=O)OCC(=O)[C@@]1(O)CC[C@H]2[C@@H]3CCC4=CC(=O)C=C[C@]4(C)[C@@]3(F)[C@@H](O)C[C@@]21C [Isoflupredone acetate]	0.07	0.50		
